Test results published in US7064122B2, “Pancreatic lipase inhibitor compounds, their synthesis and use” (OSI Pharmaceuticals, Inc., priority 2001, dated 2006).

Key:
[1] = biological target: T1, type VI-S porcine pancreatic lipase (Sus scrofa, UniProt P00591); assay: Pancreatic lipase assay (pH-stat titration, triolein substrate); assay type: biochemical; design: Ymax: unit not given here; settings: for k / Ymax: 7.0 nM lipase, 700 nM inhibitor, pH 8.0; for k: k fitted for the 12.5 min after inhibitor addition, Y=Ymax*(1-exp(-k*X)); for Ymax: Ymax of the fit Y=Ymax*(1-exp(-k*X)); for inhibition at 0.7 µM: 12.5 min
T1 construct: purchased Sigma type VI-S (catalogue number not given)
T1 sequence (P00591 1-450): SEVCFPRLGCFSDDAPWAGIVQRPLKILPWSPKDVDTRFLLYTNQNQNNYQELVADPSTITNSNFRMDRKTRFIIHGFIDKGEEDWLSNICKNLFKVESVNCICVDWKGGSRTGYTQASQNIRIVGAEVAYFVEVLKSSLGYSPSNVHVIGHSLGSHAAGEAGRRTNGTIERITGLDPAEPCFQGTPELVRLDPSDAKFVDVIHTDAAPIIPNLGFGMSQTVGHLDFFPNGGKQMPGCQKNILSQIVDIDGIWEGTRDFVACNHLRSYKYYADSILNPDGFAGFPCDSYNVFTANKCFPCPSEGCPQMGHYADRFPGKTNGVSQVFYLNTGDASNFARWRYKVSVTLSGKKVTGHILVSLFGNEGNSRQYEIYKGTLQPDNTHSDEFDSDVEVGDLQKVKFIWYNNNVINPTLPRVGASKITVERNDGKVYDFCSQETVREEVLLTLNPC
Experimental: The use of a pancreatic lipase assay has been described in the literature (Hadvary, P. et al. Biochem. J. (1988) 256: 357-361; Hadvary, P. et al. Biochem. J. (1991) 266:2021-2027). Pancreatic lipase activity was measured using a 718 Stat Titrino (Brinkmann) programmed to maintain a pH of 8.0 using 0.1 N NaOH. The substrate mixture (pH 8) contained 1 mM taurochenodeoxycholate (Sigma), 9 mM taurodeoxycholate (Sigma), 0.1 mM cholesterol (Sigma), 1 mM phosphatidylcholine (Sigma), 1.5% BSA, 2 mM Tris base, 100 mM NaCl, 10 mM CaCl2, and 3% triolein (Sigma). The mixture (5 mL) was emulsified via sonication at room temperature, and added to the titration vessel with rapid stirring. The Stat Titrino was turned on and lipase (7.0 nM type VI-S porcine pancreatic lipase (Sigma) dissolved in PBS) was added to the vessel. After 10 min, inhibitor (700 nM dissolved in 100% DMSO) was added and the reaction continued for an additional 12.5 min. The k values were determined for the 12.5 min after the addition of the inhibitor using a one phase exponential association equation, Y=Ymax*(1−exp(−k*X)), k values for lipase alone were 0.0004±0.0001 sec. The k values for compounds disclosed herein are >0.0004±0.0001 sec.

| Compound | melting point [°C] | k [1] | Ymax [1] | inhibition at 0.7 µM [1] [%] |
| --- | --- | --- | --- | --- |
| CCCCCCCCOC(=O)c1sc2nc(OC(C)C)oc(=O)c2c1C [Entry 12, 2-iso-Propoxy-5-methyl-4-oxo-4H-thieno[2,3-d][1,3]oxazine-6-carboxylic acid octyl ester] | 47.5 to 48 | 0.438 10-3.s-1 | – | – |
| CCCCCCCCNc1nc2sc(C(=O)N(CCCCCC)CCCCCC)c(C)c2c(=O)o1 [Entry 42, 5-Methyl-2-octylamino-4-oxo-4H-thieno[2,3-d][1,3]oxazine-6-carboxylic acid dihexylamide] | 42 to 45 | 1.123 10-3.s-1 | 0.124 | – |
| CCCCCCCCNC(=O)c1sc2nc(NCCCCCCCC)oc(=O)c2c1C [Entry 18, 5-Methyl-2-octylamino-4-oxo-4H-thieno[2,3-d][1,3]oxazine-6-carboxylic acid octylamide] | 152 to 152.8 | 1.036 10-3.s-1 | – | 18 |
| CCCCCCCCNc1nc2sc(C(=O)NC)c(C)c2c(=O)o1 [Entry 31, 5-Methyl-2-octylamino-4-oxo-4H-thieno[2,3-d][1,3]oxazine-6-carboxylic acid methylamide] | 152.5 to 158 | 0.777 10-3.s-1 | – | – |
| CCCCCCCCCCCCNc1nc2sc(C(=O)NCCCCCCCC)c(C)c2c(=O)o1 [Entry 24, 2-Dodecylamino-5-methyl-4-oxo-4H-thieno[2,3-d][1,3]oxazine-6-carboxylic acid octylamide] | 137.1 to 138 | 1.849 10-3.s-1 | – | – |
| CCCCCCCCNc1nc2sc(C(=O)OCc3ccccc3)c(C)c2c(=O)o1 [Entry 16, 5-Methyl-2-octylamino-4-oxo-4H-thieno[2,3-d][1,3]oxazine-6-carboxylic acid benzyl ester] | 153.5 to 154 | 1.711 10-3.s-1 | – | – |
| CCCCCCCCNc1nc2sc(C(=O)N(CCCCCCCC)CCCCCCCC)c(C)c2c(=O)o1 [Entry 41, 5-Methyl-2-octylamino-4-oxo-4H-thieno[2,3-d][1,3]oxazine-6-carboxylic acid dioctylamide] | 48 to 50 | 1.050 10-3.s-1 | 0.130 | – |
| CCCCCCCCCCCCCCNc1nc2sc(C(=O)NCCCCCCCC)c(C)c2c(=O)o1 [Entry 25, 5-Methyl-4-oxo-2-tetradecylamino-4H-thieno[2,3-d][1,3]oxazine-6-carboxylic acid octylamide] | 145 to 145.8 | 1.629 10-3.s-1 | – | – |
| CCCCCCCCNc1nc2sc(C(=O)NCc3cccnc3)c(C)c2c(=O)o1 [Entry 35, 5-Methyl-2-octylamino-4-oxo-4H-thieno[2,3-d][1,3]oxazine-6-carboxylic acid (pyridin-3-ylmethyl)amide] | 148 to 150 | 1.544 10-3.s-1 | – | – |
| CCCCCCCCNc1nc2sc(C(=O)OC(CCCC)CCCC)c(C)c2c(=O)o1 [Entry 39, 5-Methyl-2-octylamino-4-oxo-4H-thieno[2,3-d][1,3]oxazine-6-carboxylic acid 1-butyl-pentyl ester] | 90 to 92 | 1.253 10-3.s-1 | 0.156 | – |

Second part, the compound after the results:

| melting point [°C] | k [1] | Ymax [1] | inhibition at 0.7 µM [1] [%] | Compound |
| --- | --- | --- | --- | --- |
| 123 to 124 | 0.103 10-3.s-1 | 1.901 | – | CCCCCCCCNc1nc2sc(Cc3ccccc3)cc2c(=O)o1 [Entry 62, 6-Benzyl-2-octylamino-thieno[2,3-d][1,3]oxazin-4-one] |
| 153 to 154 | – | – | 69.5 | CCCCCCCCNc1nc2sc(C(=O)NCCCCc3ccccc3)c(C)c2c(=O)o1 [Entry 79, 5-Methyl-2-octylamino-4-oxo-4H-thieno(2,3-d)(1,3)oxazine-6-carboxylic acid (4-phenyl-butyl)-amide] |
| 149 to 152 | 1.137 10-3.s-1 | 0.112 | – | CCCCCCCCNc1nc2sc(C(=O)NCc3ccc4c(c3)OCO4)c(C)c2c(=O)o1 [Entry 69, 5-Methyl-2-octylamino-4-oxo-4H-thieno(2,3-d)(1,3)oxazine-6-carboxylic acid (2-benzo(1,3)dioxol-5-yl-methyl)-amide] |
| 36 | – | – | 27.9 | CCCCCCCCOc1nc2sc(CCCCCCCC)c(C)c2c(=O)o1 [Entry 87] |
| 93 to 94 | 0.074 10-3.s-1 | 10.091 | – | CCCCCCCCNc1nc2sc(CCCC)cc2c(=O)o1 [Entry 63, 6-Butyl-2-octylamino-thieno[2,3-d][1,3]oxazin-4-one] |
| 147 to 149 | 0.440 10-3.s-1 | – | – | CCCCCCCCNc1nc2sc(C(=O)NCC(=O)OCc3ccccc3)c(C)c2c(=O)o1 [Entry 48, [(5-Methyl-2-octylamino-4-oxo-4H-thieno[2,3-d][1,3]oxazine-6-carbonyl)-amino]-acetic acid benzyl ester] |
| 86 to 88 | 0.070 10-3.s-1 | – | – | CCCCCCN(C)c1nc2sc(C(=O)OCc3ccccc3)c(C)c2c(=O)o1 [Entry 57, 2-(Hexyl-methyl-amino)-5-methyl-4-oxo-4H-thieno[2,3-d][1,3]oxazine-6-carboxylic acid benzyl ester] |
| 139 to 141 | – | – | 66.3 | CCCCCCCCNc1nc2sc(C(=O)NCCCc3ccccc3)c(C)c2c(=O)o1 [Entry 80, 5-Methyl-2-octylamino-4-oxo-4H-thieno(2,3-d)(1,3)oxazine-6-carboxylic acid (3-phenyl-propyl)-amide] |
| 136 to 138 | 0.222 10-3.s-1 | – | – | CCCCC(CCCC)Nc1nc2sc(C(=O)OCc3ccccc3)c(C)c2c(=O)o1 [Entry 59, 2-(1-Butyl-pentylamino)-5-methyl-4-oxo-4H-thieno[2,3-d][1,3]oxazine-6-carboxylic acid benzyl ester] |
| 77 to 80 | 0.284 10-3.s-1 | 0.339 | – | CCCCCCCCNc1nc2sc(C(=O)N3CCc4cc(OC)c(OC)cc4C3)c(C)c2c(=O)o1 [Entry 65, 6-(6,7-Dimethoxy-3,4-dihydro-1H-isoquinoline-2-carbonyl)-5-methyl-2-octylamino-thieno(2,3-d)(1,3)oxazin-4-one] |
